Seven compounds from patent publication US11040028B2, “Penicinotam derivative, preparation method and use thereof” (OCEAN UNIVERSITY OF CHINA, priority 2017, dated 2021) can be followed below.

As usually defined, the IC50 is the midpoint of a concentration-inhibition curve.

Assay type in all cases: cell-based
One test deals with BHK-21 cells. Put plainly: Anti-fibrosis activity test: inhibition of BHK-21 cell proliferation (CCK-8). The conditions noted are these: Mesocricetus auratus, BHK-21, 48 h, CCK-8, 48 hours after administration. As for the experimental part:
(§1) BHK-21 cells in exponential growth phase were selected. After the fusion growth reached 85-95%, normal passage method was utilized to digest and collect the cells, followed by cell counting and adjusting the cell density to 2×10^4 cells/mL. The cells were seeded into 96-well plates, 100 μL/well, and were incubated under the condition of 5% CO2 at 37° C.
(§2) The supernatant was removed after the cells had adhered to the wall for 24 hours. The culture solution containing the prepared compounds at different concentrations were added to the wells, 100 μL/well, each concentration in triplicate. The cells were subcultured for 48 hours after administration. Commercially available pirfenidone was employed as the positive control.
(§3) 10 μL of CCK-8 solution ( 1/10 of the volume of the culture solution) was added to each well 48 hours after the administration, and incubated for 2 hours. The absorbance (A) of each well was determined by a microplate reader at 450 nm wavelength. The inhibition rate against cell proliferation for each compound was calculated based on A, wherein inhibition rate against cell proliferation (inhibition ratio, IR)=(1−value of experimental group (Ai)/value of blank control group (Ao))×100% and the IC50 value of each compound was calculated by the data processing software.

The subject of test [1] is human lung fibroblasts HFL1. As to the kind of experiment: Anti-fibrosis activity test: inhibition of proliferation of human lung fibroblasts HFL1 (CCK-8). Conditions: Homo sapiens, HFL1, 48 h, human lung fibroblasts HFL1, CCK-8, 48 hours. The procedure: as §1, §2, §3
(§4) Using the same protocol for the cell experiments, the inhibitory activity of the test compounds against the proliferation of human lung fibroblasts HFL1, human hepatic stellate cells LX-2, human fibrosarcoma cells HT-1080, human dermal fibroblasts CCC-ESF-1, human embryonic lung fibroblast IMR-90, cardiac fibroblast RAT-iCell-C002 was assayed.

For test [2], the system named is human hepatic stellate cells LX-2. Put plainly: Anti-fibrosis activity test: inhibition of proliferation of human hepatic stellate cells LX-2 (CCK-8). The conditions noted are these: Homo sapiens, 48 h, human hepatic stellate cells LX-2, CCK-8, 48 hours. The procedure: as §1, §2, §3, §4
Test [3] deals with human fibrosarcoma cells HT-1080. Put plainly: Anti-fibrosis activity test: inhibition of proliferation of human fibrosarcoma cells HT-1080 (CCK-8). The conditions noted are these: Homo sapiens, HT-1080, 48 h, human fibrosarcoma cells HT-1080, CCK-8, 48 hours. The procedure: as §1, §2, §3, §4
In test [4] the test system is human dermal fibroblasts CCC-ESF-1. Put plainly: Anti-fibrosis activity test: inhibition of proliferation of human dermal fibroblasts CCC-ESF-1 (CCK-8). The conditions noted are these: Fibroblast; human dermal fibroblasts CCC-ESF-1, CCK-8, 48 hours. The procedure: as §1, §2, §3, §4
In test [5] the test system is human embryonic lung fibroblast IMR-90. As to the kind of experiment: Anti-fibrosis activity test: inhibition of proliferation of human embryonic lung fibroblast IMR-90 (CCK-8). Conditions: human embryonic lung fibroblast IMR-90, CCK-8, 48 hours. As for the experimental part: as §1, §2, §3, §4
Test [6] deals with cardiac fibroblast RAT-iCell-C002. Put plainly: Anti-fibrosis activity test: inhibition of proliferation of cardiac fibroblast RAT-iCell-C002 (CCK-8). Conditions: Cardiac fibroblast, 48 h, cardiac fibroblast RAT-iCell-C002, CCK-8, 48 hours. The procedure: as §1, §2, §3, §4

Molecules are shown by their SMILES.

Turning to `N#Cc1ccc(COc2c3c(nc4cc(N5CCNCC5)c(C#N)cc24)-c2cccn2C3=O)cc1` [Compound 641b, 9-((4-cyanobenzyl)oxy)-10-oxo-6-(piperazin-1-yl)-10H-pyrrolizino[1,2-b]quinoline-7-carbonitrile], the 50% inhibitory concentration (IC50) (in the test on BHK-21 cells; in test [1]; in test [2]; in test [3]; in test [4]; in test [5]) was 0.05 to 5 mM each time. The compound further gave an IC50 in test [6] of 0.05 to 5 mM.

On to `N#Cc1cc2c(=O)c3c(n(Cc4ccc(C(F)(F)F)cc4)c2cc1N1CCNCC1)-c1cccn1C3=O` [Compound 642a, 9,10-Dioxo-6-(piperazin-1-yl)-4-(4-(trifluoromethyl)benzyl)-4,10-dihydro-9H-pyrrolizino[1,2-b]quinoline-7-carbonitrile], for which the IC50 in the test on BHK-21 cells is 0.05 to 5 mM; in test [1], 0.05 to 5 mM; in test [2] it was 0.05 to 5 mM; in test [3], 0.05 to 5 mM; in test [4], less than 0.05 mM; in test [5] it was 0.05 to 5 mM. The compound also gave an IC50 in test [6] of 0.05 to 5 mM.

`N#Cc1cc2c(OCc3ccc(C(F)(F)F)cc3)c3c(nc2cc1N1CCNCC1)-c1cccn1C3=O` [Compound 642b, 10-oxo-6-(piperazin-1-yl)-9-((4-(trifluoromethyl)benzyl)oxy)-10H-pyrrolizino[1,2-b]quinoline-7-carbonitrile]: the IC50 (in the test with BHK-21 cells; in test [1]; in test [2]; in test [3]; in test [4]; in test [5]) was 0.05 to 5 mM each time. The same compound yielded an IC50 in test [6] of 0.05 to 5 mM.

With `N#Cc1cc2c(=O)c3c(n(Cc4ccc(-c5ccccc5)cc4)c2cc1N1CCNCC1)-c1cccn1C3=O` [Compound 643a, 4-([1,1′-Biphenyl]-4-ylmethyl)-9,10-dioxo-6-(piperazin-1-yl)-4,10-dihydro-9H-pyrrolizino[1,2-b]quinoline-7-carbonitrile], the IC50 with BHK-21 cells is less than 0.05 mM; in test [1] it was 0.05 to 5 mM; in test [2] it was 0.05 to 5 mM; in test [3], 5 to 20 mM; in test [4], 0.05 to 5 mM; in test [5], 0.05 to 5 mM. In test [6], this compound came in with a 50% inhibitory concentration (IC50) of 0.05 to 5 mM.

Regarding `N#Cc1cc2c(OCc3ccc(-c4ccccc4)cc3)c3c(nc2cc1N1CCNCC1)-c1cccn1C3=O` [Compound 643b, 9-([1,1′-biphenyl]-4-ylmethoxy)-10-oxo-6-(piperazin-1-yl)-10H-pyrrolizino[1,2-b]quinoline-7-carbonitrile], the IC50 in the test on BHK-21 cells is 0.05 to 5 mM; in test [1] it was 0.05 to 5 mM; in test [2], 0.05 to 5 mM; in test [3], less than 0.05 mM; in test [4] it was 0.05 to 5 mM; in test [5] it was 0.05 to 5 mM. In addition, in test [6], the IC50 fell in the range of 0.05 to 5 mM.

Take `N#Cc1ccccc1-c1ccc(Cn2c3c(c(=O)c4cc(C#N)c(N5CCNCC5)cc42)C(=O)n2cccc2-3)cc1` [Compound 644a, 4-((2′-Cyano-[1,1′-biphenyl]-4-yl)methyl)-9,10-dioxo-6-(piperazin-1-yl)-4,10-dihydro-9H-pyrrolizino[1,2-b]quinoline-7-carbonitrile]: the concentration for half-maximal inhibition (IC50) (in the test with BHK-21 cells; in test [1]; in test [2]; in test [3]; in test [4]; in test [5]) was 0.05 to 5 mM in each case. The same compound came in with an IC50 in test [6] of 0.05 to 5 mM.

Regarding `N#Cc1ccccc1-c1ccc(COc2c3c(nc4cc(N5CCNCC5)c(C#N)cc24)-c2cccn2C3=O)cc1` [Compound 644b, 9-((2′-cyano-[1,1′-biphenyl]-4-yl)methoxy)-10-oxo-6-(piperazin-1-yl)-10H-pyrrolizino[1,2-b]quinoline-7-carbonitrile], the IC50 (in the test with BHK-21 cells; in test [1]; in test [2]; in test [3]; in test [4]; in test [5]) was 0.05 to 5 mM each time. For the same compound, the concentration for half-maximal inhibition (IC50) in test [6] was 0.05 to 5 mM.
